This note sets out measurements from ChEMBL document CHEMBL1201862, “PubChem BioAssay data set” (2004).

Some test systems named below: IGROV-1; CAKI-1; HCT-116; SK-MEL-28; CCRF-CEM; OVCAR-8; OVCAR-4; HOP-62; OVCAR-3; KM12; UACC-62; HCC 2998; RXF 393; UO-31; U-251; ACHN; Malme-3M.
Holding throughout (test): DTP human tumour cell line panel, 48 h

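Where inhibition never reached the appropriate level, the endpoint shown equals the highest concentration tested. Otherwise, values were interpolated linearly from a five-concentration, 48-hour dose response in 96-well plates. At the GI50, growth is halved.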 Calls of active or inactive are those of the source. No stated cut-off is given here; in the data, active = GI50 up to about 1.1 µM and inactive = higher.

Turning to `C=CC(=O)N1C/C(=C\c2ccc(Cl)c(Cl)c2)C(=O)/C(=C/c2ccc(Cl)c(Cl)c2)C1`, the GI50 (in general, the concentration that inhibits growth by half) with IGROV-1 is 0.124 µM (active); in the assay on CAKI-1 it was 0.244 µM (active); in the assay with HCT-116, 0.0612 µM (active); with SK-MEL-28 it was 0.458 µM (active); with CCRF-CEM, 0.0228 µM (active); in the assay with OVCAR-8 it was 0.115 µM (active). Besides, the GI50 with OVCAR-4 was 0.0318 µM (active); with HOP-62, 0.264 µM (active); in the assay on OVCAR-3 it was 0.0865 µM (active); with KM12, 0.237 µM (active); with UACC-62 it was 0.298 µM (active); with HCC 2998, 0.204 µM (active). For the same molecule, the GI50 in the assay with RXF 393 was 0.148 µM (active); in the assay on UO-31 it was 0.207 µM (active); in the assay with U-251, 0.0226 µM (active); in the assay on ACHN it was 0.169 µM (active).

As for `Oc1ccc2c(O)cc(-c3ccccc3)nc2c1`, the GI50 in the assay with IGROV-1 was 29 µM (inactive); with CAKI-1, 24.4 µM (inactive); in the assay with HCT-116, 17.4 µM (inactive); in the assay with SK-MEL-28, 38.3 µM (inactive); in the assay with CCRF-CEM, 18.2 µM (inactive); in the assay on OVCAR-8, 32.7 µM (inactive). Besides, the GI50 was 26 µM (inactive) in the assay on OVCAR-4; 28.2 µM (inactive) in the assay on HOP-62; 22.2 µM (inactive) in the assay with KM12; 19.9 µM (inactive) in the assay on UACC-62; 34 µM (inactive) in the assay with HCC 2998; 34.4 µM (inactive) with Malme-3M. Besides, the GI50 in the assay on RXF 393 is 6.22 µM (inactive); in the assay with UO-31, 19.3 µM (inactive); in the assay on U-251 it was 31.3 µM (inactive); with ACHN, 21.4 µM (inactive).

In the case of `Cc1ccc(C(c2c(O)c3ccccc3n(-c3ccccc3)c2=O)c2c(O)c3ccccc3n(-c3ccccc3)c2=O)cc1`, the GI50 in the assay on CAKI-1 was > 100 µM (inactive); in the assay on HCT-116 it was > 100 µM (inactive); in the assay on SK-MEL-28, > 100 µM (inactive); with CCRF-CEM, 7.06 µM (inactive); in the assay with OVCAR-4, > 100 µM (inactive); in the assay with HOP-62, > 100 µM (inactive). The GI50 in the assay on OVCAR-3 was > 100 µM (inactive); in the assay with KM12 it was > 100 µM (inactive); with HCC 2998, > 100 µM (inactive); with Malme-3M, > 100 µM (inactive); in the assay on RXF 393, 53.2 µM (inactive); in the assay with UO-31, > 100 µM (inactive). Also, the GI50 is > 100 µM (inactive) in the assay on U-251 and 89.3 µM (inactive) in the assay with ACHN.

For `CC1(C)OCN(c2ccc(S(N)(=O)=O)cc2)Cn2c1nc1ccccc12`, the GI50 in the assay with IGROV-1, in the assay on HCT-116, in the assay on SK-MEL-28, in the assay with CCRF-CEM, in the assay on OVCAR-8 and in the assay on OVCAR-4 was > 100 µM (inactive) in each case. For the same molecule, the GI50 in the assay with HOP-62, in the assay with OVCAR-3, with KM12, in the assay on UACC-62, with HCC 2998 and in the assay with Malme-3M was > 100 µM (inactive) each time. In addition, the GI50 in the assay with RXF 393, in the assay on UO-31, in the assay with U-251 and in the assay with ACHN was > 100 µM (inactive) in each case.

For `Cc1ccc(/C=C/C(=O)c2sc(C(N)=S)nc2C)cc1`, the GI50 in the assay on IGROV-1, in the assay with CAKI-1, in the assay with SK-MEL-28, with CCRF-CEM, in the assay on OVCAR-8 and in the assay on HOP-62 was > 100 µM (inactive) each time. Besides, the GI50 in the assay with OVCAR-3, in the assay with KM12, in the assay on UACC-62, with HCC 2998, in the assay with Malme-3M and with RXF 393 was > 100 µM (inactive) each time. Further, the GI50 in the assay on UO-31, in the assay on U-251 and with ACHN was > 100 µM (inactive) in each case.

For the molecule `COc1ccc(-c2c(N)[n+]([O-])c3ccccc3[n+]2[O-])cc1OC`, the GI50 with IGROV-1, in the assay on CAKI-1, with HCT-116, with SK-MEL-28, in the assay with OVCAR-8 and in the assay on OVCAR-4 was > 100 µM (inactive) throughout. Moreover, the GI50 in the assay with HOP-62, in the assay on OVCAR-3, in the assay on KM12, in the assay with Malme-3M, in the assay with UO-31 and with U-251 was > 100 µM (inactive) in each case. Besides, the GI50 in the assay with ACHN was > 100 µM (inactive).

On to `Cn1c2ccccc2c2cc(-c3ccccc3)c3c(c21)C(=O)c1ccccc1C3=O`, for which the GI50 with IGROV-1 was 21 µM (inactive); in the assay on CAKI-1, 28.3 µM (inactive); with HCT-116, 15.8 µM (inactive); in the assay with SK-MEL-28 it was 14.7 µM (inactive); with CCRF-CEM, 5.19 µM (inactive); with OVCAR-8 it was 18.2 µM (inactive). Further, the GI50 is 14.5 µM (inactive) in the assay with OVCAR-4; 40.5 µM (inactive) with HOP-62; 11.9 µM (inactive) with OVCAR-3; 21.5 µM (inactive) with KM12; 13.3 µM (inactive) in the assay on UACC-62; 48.8 µM (inactive) in the assay with HCC 2998. The GI50 in the assay with Malme-3M is 22.3 µM (inactive); in the assay with UO-31 it was 11 µM (inactive).

As to `Nc1ccn(CCNCCn2cnc3nc(N)[nH]c(=O)c32)c(=O)n1`, the GI50 in the assay with IGROV-1, in the assay on HCT-116, in the assay with SK-MEL-28, with OVCAR-8, in the assay on OVCAR-4 and in the assay with HOP-62 was > 100 µM (inactive) in each case. The GI50 in the assay with OVCAR-3, with KM12, with HCC 2998, in the assay on Malme-3M, with RXF 393 and in the assay with UO-31 was > 100 µM (inactive) throughout. For the same molecule, the GI50 in the assay with U-251 and with ACHN was > 100 µM (inactive) each time.

As for `COc1ccccc1NC(=O)CC(=O)N/N=C/c1ccc(N(CCC#N)S(=O)(=O)c2ccccc2)cc1`, the GI50 with IGROV-1, with CAKI-1, in the assay with HCT-116, with SK-MEL-28, in the assay with CCRF-CEM and in the assay on OVCAR-8 was > 100 µM (inactive) throughout. For the same molecule, the GI50 in the assay on OVCAR-4, with HOP-62, with OVCAR-3, in the assay with KM12, in the assay with UACC-62 and in the assay with HCC 2998 was > 100 µM (inactive) throughout. For the same molecule, the GI50 with Malme-3M, with UO-31, in the assay with U-251 and in the assay with ACHN was > 100 µM (inactive) throughout.

For the molecule `Cc1ccc([N+](=O)[O-])cc1NC(=O)C(=O)Cc1nc2ccc(C(=O)c3ccccc3)cc2nc1O`, the GI50 in the assay on IGROV-1, in the assay on CAKI-1, with HCT-116, in the assay with SK-MEL-28, in the assay on CCRF-CEM and with OVCAR-8 was > 100 µM (inactive) each time. Besides, the GI50 in the assay with OVCAR-4 is > 100 µM (inactive); in the assay on HOP-62, > 100 µM (inactive); with OVCAR-3 it was > 100 µM (inactive); with KM12, 93.3 µM (inactive); in the assay with UACC-62, > 100 µM (inactive); in the assay on HCC 2998 it was > 100 µM (inactive). The GI50 in the assay with Malme-3M, in the assay on RXF 393, with UO-31 and in the assay on ACHN was > 100 µM (inactive) each time.

`Cc1ccc(S(=O)OC2C3CC4CC(C3)CC2C4)cc1` (stereo not given): the GI50 with IGROV-1, with CAKI-1, in the assay on HCT-116, with SK-MEL-28, in the assay on OVCAR-8 and with OVCAR-4 was > 100 µM (inactive) throughout. The GI50 in the assay on HOP-62, in the assay with OVCAR-3, in the assay on KM12, in the assay on UACC-62, with HCC 2998 and in the assay with Malme-3M was > 100 µM (inactive) in each case. The GI50 in the assay with RXF 393, in the assay on UO-31, with U-251 and in the assay on ACHN was > 100 µM (inactive) each time.

`CCCCN(CCCC)CC(C(=O)Nc1ccc([N+](=O)[O-])cc1[N+](=O)[O-])/C(C)=N\NC(=O)c1ccncc1` (stereo not given): the GI50 in the assay on IGROV-1, in the assay with CAKI-1, in the assay with SK-MEL-28, in the assay on CCRF-CEM, in the assay with OVCAR-8 and with OVCAR-4 was > 100 µM (inactive) throughout. In addition, the GI50 in the assay on HOP-62, in the assay with OVCAR-3, in the assay with UACC-62, in the assay on HCC 2998, with Malme-3M and in the assay with RXF 393 was > 100 µM (inactive) throughout. Besides, the GI50 in the assay on UO-31, in the assay with U-251 and with ACHN was > 100 µM (inactive) throughout.

For the molecule `CN(C)c1ccc(C(=C2C=CC(=[N+](C)C)C=C2)c2ccc(N(C)C)cc2)cc1` [GENTIAN VIOLET], the GI50 in the assay on IGROV-1 is 0.21 µM (active); in the assay with CAKI-1, 0.34 µM (active); in the assay on SK-MEL-28 it was 0.53 µM (active); with CCRF-CEM it was 0.102 µM (active); with OVCAR-4, 0.264 µM (active); in the assay with HOP-62, 0.375 µM (active). The GI50 in the assay on KM12 is 0.0942 µM (active); in the assay with UACC-62, 0.143 µM (active); in the assay on HCC 2998, 0.216 µM (active); with Malme-3M, 0.245 µM (active); with RXF 393, 0.201 µM (active); with UO-31 it was 0.318 µM (active). For the same molecule, the GI50 in the assay on U-251 is 0.0354 µM (active); in the assay with ACHN, 0.175 µM (active).
